Literature values as cited in US20110229902A1, “METHOD FOR DETERMINING THE […] OF FUNGI AND YEASTS, IN PARTICULAR OF A[…]” (STICHTING TER B[…] DE FARMACODYNAMIEK, priority 2008, published 2011).

What was measured:
Set-up in all cases: key: R = resistant; S = sensitive
[1] = system: Aspergillus fumigatus cyp51A L98H + TR; details: A. fumigatus isolate with cyp51A L98H + TR (tandem repeat in promoter)
[2] = system: Aspergillus fumigatus cyp51A G54W; details: A. fumigatus isolate with cyp51A mutation G54W
[3] = system: Aspergillus fumigatus cyp51A M220X; details: A. fumigatus isolate with cyp51A mutation M220X
[4] = system: Aspergillus fumigatus cyp51A G138C; details: A. fumigatus isolate with cyp51A mutation G138C
[5] = system: Aspergillus fumigatus cyp51A G54X; details: A. fumigatus isolate with cyp51A mutation G54X

Row | Compound | resistance status (resistant or sensitive) [1] | resistance status (resistant or sensitive) [2] | resistance status (resistant or sensitive) [3] | resistance status (resistant or sensitive) [4] | resistance status (resistant or sensitive) [5]
1 | C[C@@H](c1ncncc1F)[C@](O)(Cn1cncn1)c1ccc(F)cc1F [Voriconazole] | R | S | S | R | S
2 | C[C@@H](c1nc(-c2ccc(C#N)cc2)cs1)[C@](O)(Cn1cncn1)c1ccc(F)cc1F [Ravuconazole] | R | S | S | R | S
3 | CC[C@@H]([C@H](C)O)n1ncn(-c2ccc(N3CCN(c4ccc(OC[C@@H]5CO[C@@](Cn6cncn6)(c6ccc(F)cc6F)C5)cc4)CC3)cc2)c1=O [Posaconazole] | S | R | S | S | S
